Here are results for two compounds from article PMC9278491, “Filarial nematode phenotypic screening cascade to identify compounds with anti-parasitic activity for drug discovery optimization” (International Journal for Parasitology: Drugs and Drug …, 2022).

“And” between values parts separate entries of the source, which are not always exact repeats. Equal values may be shown once. Read-outs that look alike come from different tables or passages of the source.

In assay [1] the test system is O. lienalis microfilariae. The assay can be described thus: O. lienalis microfilariae 5-day motility assay. On the set-up: species or system Onchocerca lienalis. The following applies: 5 days in vitro culture, top concentration 12.5 μM; read-out: O. lienalis EC50 (motility inhibition, microfilariae). On the procedure: A single large batch of O. lienalis microfilariae was obtained post mortem from the peri-umbilical skin area of freshly slaughtered, naturally infected cattle in the UK following the procedure described by ([Tagboto and Townson, 1991]) and the references therein. The extracted microfilariae were cryopreserved using a 2-step incubation technique with ethanediol as a cryoprotectant ([Ham et al., 1981]), stored in liquid nitrogen and thawed when required for immediate use.
Using a dissecting microscope and micropipette, microfilariae were then transferred in groups of 5 into each well of a 96-well plate (Fisher Scientific, UK). […]
(§1) Only normally active worms were used for the test and all assays were conducted at 37 °C and 5% CO2. […] The activity levels of O. gutturosa adult worms were assessed by the measurement of mean motility scores on a scale of 0 (immotile) to 10 (maximum) every 24 h, terminating at 120 h, using an Olympus inverted microscope. For O. lienalis microfilariae, the motility of the microfilariae was classified using an Olympus inverted microscope as normal (continuous rapid sinuous movement, scored as 3), marginally impaired (slower than normal movement, scored as 2), severely impaired (scored as 1), or immotile (scored as 0) after 120 h of drug exposure. […]
The EC50 values were calculated using a sigmoidal interpolation in Graph Pad Prisme 7 data analysis software. […]

For assay [2], the system named is O. gutturosa adult male worms. Kind of assay: O. gutturosa adult worm 5-day motility assay. On the set-up: species or system Onchocerca gutturosa. The following applies: 5 days in vitro culture, top concentration 12.5 μM, read-out: O. gutturosa EC50 (motility inhibition, adult worms).
Excerpt: O. gutturosa adult male worms were obtained postmortem from freshly slaughtered cattle. The worms were dissected from the nuchal ligament connective tissues of naturally infected cattle in Gambia, West Africa; The West Africa Livestock Innovation Centre (WALIC), Banjul, purchased material from local butchers for use in this study.
Using a dissecting microscope and micropipette, microfilariae were then transferred in groups of 5 into each well of a 96-well plate (Fisher Scientific, UK). The adult O. gutturosa worms were transferred individually to each well of a sterile 24-well (2 mL) plate (Fisher Scientific, UK) and maintained for at least 24 h in culture before use. […]
as §1

Assay [3] deals with O. gutturosa adult worms. Kind of assay: O. gutturosa adult worm viability, MTT/formazan colorimetry. On the set-up: species or system Onchocerca gutturosa. The following applies: day 5, vs untreated control. On the procedure:
The EC50 values were calculated using a sigmoidal interpolation in Graph Pad Prisme 7 data analysis software. The test drug is considered active when a motility reduction of ≥50% is observed by comparison to the untreated controls. In addition, biochemical evaluation of O. gutturosa adult worm viability was assessed using MTT/formazan colorimetry. The MTT assay was carried out after the last motility reading (120 h). Single intact worms were placed in each well of a 48-well plate (Fisher Scientific, UK) containing 0.5 mL of 0.5 mg/mL MTT (Sigma, UK) in PBS solution, and then incubated for 30 min at 37 °C. The worms were removed, blotted carefully, and individually transferred to separate wells of a 96-well microtiter plate, each containing 200 μL of DMSO to solubilize the formazan. After 1 h the plate was gently agitated to disperse the color evenly and the absorbance value (optical density, OD) of the resulting formazan solution was determined at 490 nm using an absorbance microplate reader (Biotek ELx800, Fisher Scientific, UK). The results are expressed as the mean OD per drug concentration. Inhibition of formazan formation is correlated with worm damage or death.
Supplementary Figure S4. Ex vivo MTT worm viability screening against adult O. gutturosa. O. gutturosa adult worm viability was assessed using MTT/formazan colorimetry on day 5. […]

Assay [4] deals with adult L. sigmodontis. The assay can be described thus: L. sigmodontis murine model of filariasis (adult worm burden). It is filed as in vivo, Litomosoides sigmodontis in female BALB/c mice. Particulars: BALB/c mice, 2 mg/kg, QD SC, 5 days, mean vs mean of vehicle controls.

Turning to `Cl.Cl.NCCS[As](SCCN)c1ccc(Nc2nc(N)nc(N)n2)cc1` [Immiticide, melarsomine dihydrochloride], the EC50 (usually the midpoint of the concentration-response curve) was 800 nM in assay [1], 600 nM in assay [2] (listed as Imiticide) and 590 nM in assay [2]. Besides, in assay [3], the “O. gutturosa MTT % reduction at 12.5 μM” value came to 96.3%.
`COC(=O)Nc1nc2cc(C(=O)c3ccc(F)cc3)ccc2[nH]1` [Flubendazole, flubendazole]: in assay [4], the “Reduction Adult Worms” value was 98.4% (P = 0.024) and 100% (P = 0.007).
